Article PMC7363588, “Mapping of the FGF14:Nav1.6 complex interface reveals FLPK as a functionally active peptide modulating excitability” (Physiological Reports, 2020)
Peptide text beside a SMILES is read from it.

Legend:
[1] = target: T1, FGF14 (Homo sapiens, UniProt Q92915); assay: SPR binding to FGF14; details: for binding to FGF14: SPR
T1 construct: aa 64–252); 6X His (N); made in house; host or cells: E. coli BL21 (DE3) pLys
T1 sequence (Q92915 64-252 isoform Q92915-2): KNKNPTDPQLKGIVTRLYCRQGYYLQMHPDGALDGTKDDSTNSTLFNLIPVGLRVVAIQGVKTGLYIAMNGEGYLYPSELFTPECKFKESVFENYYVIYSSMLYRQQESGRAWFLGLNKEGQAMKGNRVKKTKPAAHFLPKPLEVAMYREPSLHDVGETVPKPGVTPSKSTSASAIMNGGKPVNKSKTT
Description: (§1) Plasmids used in this study derived from the following clones: human FGF14‐1b isoform (accession number: NM_175929.2) and human Nav1.6 (accession number: NM_014191.3). The CLuc‐FGF14, CD4‐Nav1.6‐NLuc, constructs and the pcDNA3.1 vector (Invitrogen, Carlsbad, CA) were engineered and characterized as previously described (Goetz et al., 2009; Shavkunov et al., 2012,2013,2015; Ali et al., 2016, 2018; Wadsworth et al., 2019). The plasmid pGL3 expressing full length Firefly (Photinus pyralis) luciferase was a gift from Dr. P. Sarkar (Department of Neurology, UTMB). For protein purification studies, cDNAs encoding FGF14‐1b (accession number NP_787125; aa 64–252) or the C‐terminal tail of Nav1.6 (accession number #NP_001171455; aa 1756–1939) were subcloned into suitable pET bacterial expression vectors (pET28a‐FGF14; pET30a‐Nav1.6) with a 6X His‐tag at the N‐terminal site; these plasmids were a gift of Dr. Moosa Mohammadi (NYU, Langone Medical Center). The mutation coding for FGF14^V160A was generated by site‐directed mutagenesis and PCR using FGF14‐1b as a template described previously (Ali et al., 2016). For electrophysiological studies FGF14‐GFP (human) and FGF14‐ΔNT‐GFP (human) were cloned into the GFP plasmid (pQBI‐fC2; Quantum Biotechnology Inc., Montreal, Canada) as previously described.
(§2) Upon transformation with corresponding cDNA clones, the recombinant proteins FGF14, FGF14^V160A and Nav1.6 C‐terminal tail were expressed in E. coli BL21 (DE3) pLys (Invitrogen) after induction with 0.1 mM isopropyl thio‐β‐D‐galacto‐pyranoside (IPTG) for 24 hr at 16°C. After induction with IPTG, bacterial cells were harvested and lysed by sonication at 4°C in lysis/binding buffer containing following components (mM): sodium phosphate 10 (prepared from 0.5 M of Na2HPO4 and NaH2PO4) + 3‐cholamidopropyl dimethylammonio 1‐propanesulfonate 0.1% pH 7.0 (for FGF14 proteins) + HEPES 25 + NaCl 150 + glycerol 10% (Nav1.6) pH 7.5 and containing 0.1 mM phenyl methyl sulphonyl fluoride (PMSF). The respective proteins were centrifuged at 18,000 g for 30 min at 4°C. For purification of FGF14 and FGF14^V160A, the supernatant was applied to preequilibrated heparin and the proteins were then eluted with NaCl 0.2–2.0 M in the elution (sodium phosphate 10 mM + NaCl 0.2–2.0 M pH 7.0) buffer. For purification of the Nav1.6 C‐tail, the supernatant was applied first to Ni^2+ NTA column and eluted with imidazole (200 mM). The Nav1.6 C‐tail was further purified using HiTrap QFF‐sepharose column (GE Healthcare Bio‐Sciences, Pittsburgh, PA) with a buffer containing Tris‐HCl 50 mM and eluted with NaCl (10–500 mM) at pH 7.5. Finally, all concentrated proteins were purified on an AKTA FPLC purifier using Superdex 200 Hiload 16 × 60 columns (GE Healthcare Bio‐Sciences) and equilibrated in Tris‐HCl 50 mM + NaCl 150 mM, pH 7.5 (Ali et al., 2016; Scala et al., 2018).
(§3) SPR experiments were performed on a Biacore T100 (GE Healthcare Bio‐Sciences, Pittsburgh, PA), and the interaction of FGF14 and Nav1.6 channel toward FLPK, PLEV and EYYV (1–100 µM) were studied at 25°C. To analyze the effects of FLPK, PLEV and EYYV on FGF14^WT (RU 16,000), FGF14^V160A (RU 18,000) and Nav1.6 C‐tail (RU 12,000), the proteins were immobilized on CM5 sensor chip using Acetate 5.5 with Amine Coupling Kit (Biacore GE Healthcare Bio‐Sciences). No protein was coupled to the control flow channel of the chip. Using a flow rate of 50 µl/min, FLPK, PLEV and EYYV (1–100 µM) diluted in HBS‐P^+ buffer were injected over the chip for 180 s, followed by injection of HBS‐P+ for 180 s to monitor dissociation, and finally the chip surface was regenerated with NaCl (200 mM). For each peptide injection, nonspecific responses (buffer only) were subtracted from experimental sensograms/traces prior to data analysis. Maximal equilibrium responses were plotted against peptide concentrations and association rate constant (kon), dissociation rate constatnt (koff) were determined. […]

[2] = target: T2, Nav1.6 C-terminal tail (Homo sapiens, UniProt Q9UQD0); assay: SPR binding to Nav1.6 C-terminal tail; details: for koff, dissociation rate constant / kon, association rate constant: CM5, 25°C, 1–100 µM, RU 12,000, N.M. = not measurable; for binding to Nav1.6 C-terminal tail: peptide 1–100 µM
T2 construct: aa 1756–1939); 6X His (N); made in house; host or cells: E. coli BL21 (DE3) pLys
T2 sequence (Q9UQD0 1797-1980): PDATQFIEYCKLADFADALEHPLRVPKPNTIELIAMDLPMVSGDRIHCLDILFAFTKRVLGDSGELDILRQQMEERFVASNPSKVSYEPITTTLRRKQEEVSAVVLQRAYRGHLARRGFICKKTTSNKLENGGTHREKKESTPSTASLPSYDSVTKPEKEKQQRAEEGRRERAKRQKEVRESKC
Description: as §1, §2, §3

[3] = Biacore T100, CM5, 25°C, peptide 1–100 µM in HBS-P+ pH 7.4, FGF14 RU 16,000, N.M. = not measurable

Row | Compound | koff ([1]; Biacore T100, CM5, 25°C, peptide 1–100 µM in HBS-P+ pH 7.4, FGF14 RU 16,000, N.M. = not measurable, read-out: koff, dissociation rate constant) [s⁻¹] | Kd ([1]; Biacore T100, CM5, 25°C, peptide 1–100 µM, read-out: KD, equilibrium constant) [µM] | binding to FGF14 ([1]; peptide 1–100 µM) | koff, dissociation rate constant [2] | kon, association rate constant [2] | binding to Nav1.6 C-terminal tail [2] | koff, dissociation rate constant [1, 3] | kon, association rate constant [1, 3]
1 | CC(=O)N[C@@H](Cc1ccccc1)C(=O)N[C@@H](CC(C)C)C(=O)N1CCC[C@H]1C(=O)N[C@@H](CCCCN)C(N)=O [FLPK] (Ac-FLPK-NH2) | 0.000431 | 4.97 | only FLPK exhibited measurable affinity | N.M. | N.M. | no measurable binding | – | –
2 | PLEV [tetrapeptide previously designed from FGF14:FGF14 dimer interface; docked with N-terminal acetylation and C-terminal amidation] | – | – | no appreciable affinity to either protein was detected | N.M. | N.M. | no appreciable affinity to either protein was detected | N.M. | N.M.
3 | EYYV [tetrapeptide previously designed from FGF14:FGF14 dimer interface; docked with N-terminal acetylation and C-terminal amidation] | – | – | no appreciable affinity to either protein was detected | N.M. | N.M. | no appreciable affinity to either protein was detected | N.M. | N.M.
